Assay results: PubChem BioAssay AID1259407 (Chemical Carcinogenesis Research Information System (CCRIS), 2018)
Activity calls are given as the source filed them. The rule behind the calls is not given here.

Tested on: CCRIS mutagenicity, Ames/micronucleus/aberration tests
Test: CCRIS mutagenicity studies

Measured: mutagenic call

CC(=O)Oc1ccccc1C(=O)O
active: End Point: IN VITRO MICRONUCLEUS, Test System: CHL/IU CELLS, Metabolic Activation: NONE active; positive
inactive: End Point: IN VITRO MICRONUCLEUS, Test System: RAT KIDNEY FIBROBLAST NRK-49F, Metabolic Activation: NONE inactive; negative | Test System: AMES SALMONELLA TYPHIMURIUM, Strain/Indicator: TA97, Metabolic Activation: HAMSTER, LIVER, S-9, AROCLOR 1254 (10%), Method: PREINCUBATION inactive; negative | Test System: AMES SALMONELLA TYPHIMURIUM, Strain/Indicator: TA97, Metabolic Activation: HAMSTER, LIVER, S-9, AROCLOR 1254 (30%), Method: PREINCUBATION inactive; negative | Test System: AMES SALMONELLA TYPHIMURIUM, Strain/Indicator: TA97, Metabolic Activation: NONE, Method: PREINCUBATION inactive; negative | Test System: AMES SALMONELLA TYPHIMURIUM, Strain/Indicator: TA97, Metabolic Activation: RAT, LIVER, S-9, AROCLOR 1254 (10%), Method: PREINCUBATION inactive; negative | Test System: AMES SALMONELLA TYPHIMURIUM, Strain/Indicator: TA97, Metabolic Activation: RAT, LIVER, S-9, AROCLOR 1254 (30%), Method: PREINCUBATION inactive; negative | Test System: AMES SALMONELLA TYPHIMURIUM, Strain/Indicator: TA98, Metabolic Activation: GUINEA PIG, LIVER, S-9, PCB, Method: PREINCUBATION inactive; negative | Test System: AMES SALMONELLA TYPHIMURIUM, Strain/Indicator: TA98, Metabolic Activation: HAMSTER, LIVER, S-9, AROCLOR 1254 (10%), Method: PREINCUBATION inactive; negative | Test System: AMES SALMONELLA TYPHIMURIUM, Strain/Indicator: TA98, Metabolic Activation: HAMSTER, LIVER, S-9, AROCLOR 1254 (30%), Method: PREINCUBATION inactive; negative | Test System: AMES SALMONELLA TYPHIMURIUM, Strain/Indicator: TA98, Metabolic Activation: HAMSTER, LIVER, S-9, AROCLOR 1254, Method: STANDARD PLATE inactive; negative | Test System: AMES SALMONELLA TYPHIMURIUM, Strain/Indicator: TA98, Metabolic Activation: HAMSTER, LIVER, S-9, PCB, Method: PREINCUBATION inactive; negative | Test System: AMES SALMONELLA TYPHIMURIUM, Strain/Indicator: TA98, Metabolic Activation: MOUSE, LIVER, S-9, AROCLOR 1254, Method: STANDARD PLATE inactive; negative | Test System: AMES SALMONELLA TYPHIMURIUM, Strain/Indicator: TA98, Metabolic Activation: MOUSE, LIVER, S-9, PCB, Method: PREINCUBATION inactive; negative | Test System: AMES SALMONELLA TYPHIMURIUM, Strain/Indicator: TA98, Metabolic Activation: NONE, Method: PREINCUBATION inactive; negative | Test System: AMES SALMONELLA TYPHIMURIUM, Strain/Indicator: TA98, Metabolic Activation: NONE, Method: STANDARD PLATE inactive; negative | Test System: AMES SALMONELLA TYPHIMURIUM, Strain/Indicator: TA98, Metabolic Activation: RAT, LIVER, S-9, AROCLOR 1254 (10%), Method: PREINCUBATION inactive; negative | Test System: AMES SALMONELLA TYPHIMURIUM, Strain/Indicator: TA98, Metabolic Activation: RAT, LIVER, S-9, AROCLOR 1254 (30%), Method: PREINCUBATION inactive; negative | Test System: AMES SALMONELLA TYPHIMURIUM, Strain/Indicator: TA98, Metabolic Activation: RAT, LIVER, S-9, AROCLOR 1254, Method: STANDARD PLATE inactive; negative | Test System: AMES SALMONELLA TYPHIMURIUM, Strain/Indicator: TA98, Metabolic Activation: RAT, LIVER, S-9, PCB, Method: PREINCUBATION inactive; negative | Test System: AMES SALMONELLA TYPHIMURIUM, Strain/Indicator: TA98, Metabolic Activation: RAT, LIVER, S-9, PCB, Method: STANDARD PLATE inactive; negative | Test System: AMES SALMONELLA TYPHIMURIUM, Strain/Indicator: TA100, Metabolic Activation: GUINEA PIG, LIVER, S-9, PCB, Method: PREINCUBATION inactive; negative | Test System: AMES SALMONELLA TYPHIMURIUM, Strain/Indicator: TA100, Metabolic Activation: HAMSTER, LIVER, S-9, AROCLOR 1254 (10%), Method: PREINCUBATION inactive; negative | Test System: AMES SALMONELLA TYPHIMURIUM, Strain/Indicator: TA100, Metabolic Activation: HAMSTER, LIVER, S-9, AROCLOR 1254 (30%), Method: PREINCUBATION inactive; negative | Test System: AMES SALMONELLA TYPHIMURIUM, Strain/Indicator: TA100, Metabolic Activation: HAMSTER, LIVER, S-9, AROCLOR 1254, Method: STANDARD PLATE inactive; negative | Test System: AMES SALMONELLA TYPHIMURIUM, Strain/Indicator: TA100, Metabolic Activation: HAMSTER, LIVER, S-9, PCB, Method: PREINCUBATION inactive; negative | Test System: AMES SALMONELLA TYPHIMURIUM, Strain/Indicator: TA100, Metabolic Activation: MOUSE, LIVER, S-9, AROCLOR 1254, Method: STANDARD PLATE inactive; negative | Test System: AMES SALMONELLA TYPHIMURIUM, Strain/Indicator: TA100, Metabolic Activation: MOUSE, LIVER, S-9, PCB, Method: PREINCUBATION inactive; negative | Test System: AMES SALMONELLA TYPHIMURIUM, Strain/Indicator: TA100, Metabolic Activation: NONE, Method: PREINCUBATION inactive; negative | Test System: AMES SALMONELLA TYPHIMURIUM, Strain/Indicator: TA100, Metabolic Activation: NONE, Method: STANDARD PLATE inactive; negative | Test System: AMES SALMONELLA TYPHIMURIUM, Strain/Indicator: TA100, Metabolic Activation: RAT, LIVER, S-9, AROCLOR 1254 (10%), Method: PREINCUBATION inactive; negative | Test System: AMES SALMONELLA TYPHIMURIUM, Strain/Indicator: TA100, Metabolic Activation: RAT, LIVER, S-9, AROCLOR 1254 (30%), Method: PREINCUBATION inactive; negative | Test System: AMES SALMONELLA TYPHIMURIUM, Strain/Indicator: TA100, Metabolic Activation: RAT, LIVER, S-9, AROCLOR 1254, Method: STANDARD PLATE inactive; negative | Test System: AMES SALMONELLA TYPHIMURIUM, Strain/Indicator: TA100, Metabolic Activation: RAT, LIVER, S-9, PCB, Method: PREINCUBATION inactive; negative | Test System: AMES SALMONELLA TYPHIMURIUM, Strain/Indicator: TA100, Metabolic Activation: RAT, LIVER, S-9, PCB, Method: STANDARD PLATE inactive; negative | Test System: AMES SALMONELLA TYPHIMURIUM, Strain/Indicator: TA1535, Metabolic Activation: HAMSTER, LIVER, S-9, AROCLOR 1254 (10%), Method: PREINCUBATION inactive; negative | Test System: AMES SALMONELLA TYPHIMURIUM, Strain/Indicator: TA1535, Metabolic Activation: HAMSTER, LIVER, S-9, AROCLOR 1254 (30%), Method: PREINCUBATION inactive; negative | Test System: AMES SALMONELLA TYPHIMURIUM, Strain/Indicator: TA1535, Metabolic Activation: HAMSTER, LIVER, S-9, AROCLOR 1254, Method: STANDARD PLATE inactive; negative | Test System: AMES SALMONELLA TYPHIMURIUM, Strain/Indicator: TA1535, Metabolic Activation: MOUSE, LIVER, S-9, AROCLOR 1254, Method: STANDARD PLATE inactive; negative | Test System: AMES SALMONELLA TYPHIMURIUM, Strain/Indicator: TA1535, Metabolic Activation: NONE, Method: PREINCUBATION inactive; negative | Test System: AMES SALMONELLA TYPHIMURIUM, Strain/Indicator: TA1535, Metabolic Activation: NONE, Method: STANDARD PLATE inactive; negative | Test System: AMES SALMONELLA TYPHIMURIUM, Strain/Indicator: TA1535, Metabolic Activation: RAT, LIVER, S-9, AROCLOR 1254 (10%), Method: PREINCUBATION inactive; negative | Test System: AMES SALMONELLA TYPHIMURIUM, Strain/Indicator: TA1535, Metabolic Activation: RAT, LIVER, S-9, AROCLOR 1254 (30%), Method: PREINCUBATION inactive; negative | Test System: AMES SALMONELLA TYPHIMURIUM, Strain/Indicator: TA1535, Metabolic Activation: RAT, LIVER, S-9, AROCLOR 1254, Method: STANDARD PLATE inactive; negative | Test System: AMES SALMONELLA TYPHIMURIUM, Strain/Indicator: TA1537, Metabolic Activation: HAMSTER, LIVER, S-9, AROCLOR 1254, Method: STANDARD PLATE inactive; negative | Test System: AMES SALMONELLA TYPHIMURIUM, Strain/Indicator: TA1537, Metabolic Activation: MOUSE, LIVER, S-9, AROCLOR 1254, Method: STANDARD PLATE inactive; negative | Test System: AMES SALMONELLA TYPHIMURIUM, Strain/Indicator: TA1537, Metabolic Activation: NONE, Method: STANDARD PLATE inactive; negative | Test System: AMES SALMONELLA TYPHIMURIUM, Strain/Indicator: TA1537, Metabolic Activation: RAT, LIVER, S-9, AROCLOR 1254, Method: STANDARD PLATE inactive; negative | Test System: AMES SALMONELLA TYPHIMURIUM, Strain/Indicator: TA1537, Metabolic Activation: RAT, LIVER, S-9, PCB, Method: STANDARD PLATE inactive; negative | Test System: AMES SALMONELLA TYPHIMURIUM, Strain/Indicator: TA1538, Metabolic Activation: HAMSTER, LIVER, S-9, AROCLOR 1254, Method: STANDARD PLATE inactive; negative | Test System: AMES SALMONELLA TYPHIMURIUM, Strain/Indicator: TA1538, Metabolic Activation: MOUSE, LIVER, S-9, AROCLOR 1254, Method: STANDARD PLATE inactive; negative | Test System: AMES SALMONELLA TYPHIMURIUM, Strain/Indicator: TA1538, Metabolic Activation: NONE, Method: STANDARD PLATE inactive; negative | Test System: AMES SALMONELLA TYPHIMURIUM, Strain/Indicator: TA1538, Metabolic Activation: RAT, LIVER, S-9, AROCLOR 1254, Method: STANDARD PLATE inactive; negative | Test System: AMES SALMONELLA TYPHIMURIUM, Strain/Indicator: TA1538, Metabolic Activation: RAT, LIVER, S-9, PCB, Method: STANDARD PLATE inactive; negative | Test System: E. COLI, Strain/Indicator: WP2 UVRA, Metabolic Activation: HAMSTER, LIVER, S-9, AROCLOR 1254, Method: STANDARD PLATE inactive; negative | Test System: E. COLI, Strain/Indicator: WP2 UVRA, Metabolic Activation: HAMSTER, LIVER, S-9, Method: STANDARD PLATE inactive; negative | Test System: E. COLI, Strain/Indicator: WP2 UVRA, Metabolic Activation: MOUSE, LIVER, S-9, AROCLOR 1254, Method: STANDARD PLATE inactive; negative | Test System: E. COLI, Strain/Indicator: WP2 UVRA, Metabolic Activation: MOUSE, LIVER, S-9, Method: STANDARD PLATE inactive; negative | Test System: E. COLI, Strain/Indicator: WP2 UVRA, Metabolic Activation: NONE, Method: STANDARD PLATE inactive; negative | Test System: E. COLI, Strain/Indicator: WP2 UVRA, Metabolic Activation: RAT, LIVER, S-9, AROCLOR 1254, Method: STANDARD PLATE inactive; negative | Test System: E. COLI, Strain/Indicator: WP2 UVRA, Metabolic Activation: RAT, LIVER, S-9, PCB, Method: STANDARD PLATE inactive; negative | Test System: E. COLI, Strain/Indicator: WP2 UVRA, Metabolic Activation: RAT, LIVER, S-9, Method: STANDARD PLATE inactive; negative
